Laboratory results from publication PMC8309005, “Novel Non-Congeneric Derivatives of the Choline Kinase Alpha Inhibitor ICL-CCIC-0019” (Pharmaceutics, 2021).

How the values were obtained:
[1] = target: CHK a (CHKA) (Homo sapiens, UniProt P35790); assay: Lipid kinase screening (ADP-Glo), CHKA; type: biochemical; details: for % Inhibition CHK a: 10 μM
Description: (§1) The lipid kinase screening for ICL-CCIC-0019, CK14, CK145 (5), CK146 (4) and CK147 (8) (testing concentration for all compounds: 10 μM) was performed by MRC PPU International Centre for Kinase Profiling (Dundee, UK). The lipid kinase screening panel includes 15 human recombinant lipid kinases and the tests used Promega ADP Glo^TM High Throughput Assay kit (Promega, Southampton, UK). For each assay, reference compounds were used as quality control. Finally, mean percentage activity inhibited by compounds and standard deviation for all the repeats were calculated.

[2] = Matrix stability assay in fasted state simulated gastric fluid (FaSSGF); type: in vitro ADME; details: for Matrix Stability: Remaining %: FaSSGF; for half-life: fasted state simulated gastric fluid (FaSSGF), fasted state simulated gastric fluid, pH 1.6, read-out: FaSSGF stability Half-life (converted)
Description: (§2) The ADME study for ICL-CCIC-0019, CK14, CK145 (5), CK146 (4) and CK147 (8) was performed by Charles River Drug Discovery Services (Essex, UK).
(§3) The predicted in vitro pharmacokinetic characteristics of compounds were evaluated by four ADME assays, namely kinetic solubility assay, metabolic stability assay using human liver microsome S9, permeability and efflux study using the Caco-2 cell line, and matrix stability assay using fasted state simulated gastric fluid (FaSSGF). All tested CHKA inhibitors were highly soluble (>150 μM) in 0.1 M PBS (2% DMSO) (Table 1). […] The in vivo clearance was calculated to predict the actual clearance in humans by scaling the clearance values, which takes into account liver weight, microsomes per liver and liver blood flow. […] In Caco-2 cell permeability assay, drug permeability was investigated and presented as apparent permeability coefficients (Papp) in A to B (A-B, apical to basolateral direction) and B to A (B-A, basolateral to apical direction).

[3] = test system: C4-2B cell line; assay: Anti-proliferative SRB assay, C4-2B; type: cell-based; details: Homo sapiens, PSMA +, Table S3, ± SD
Description: (§4) Half-maximal growth inhibitory concentrations (GI50) were determined using sulforhodamine B (SRB) assay as described elsewhere. In brief, cells were seeded in 96-wells at respective cell densities determined by their cell growth curves. After 24 h, the cells were treated in six replicates with medium or different concentrations of CHKA inhibitors in medium and incubated for another 72 h. On completion of incubation, the cells were fixed with 10% trichloroacetic acid (TCA) and stained with 0.4% SRB in 1% acetic acid. The stained protein was solubilized with 10 mM Tris base and optical density values were measured at 540 nm using a Multiskan® EX Micro plate photometer (Thermo Scientific, Loughborough, UK). Growth inhibition curves were plotted as percentage of the control groups and GI50 data were determined by least squares fitting method using GraphPad Prism 7.0. All the chemicals used in this experiment were obtained from Sigma-Aldrich (Gillingham, UK).

[4] = target: DGK g (Homo sapiens, UniProt P49619); assay: Lipid kinase screening (ADP-Glo), DGK g; type: biochemical
Description: as §1

[5] = target: PI3Ka E545K + p85 (Homo sapiens, UniProt P42336, E545K); assay: Lipid kinase screening (ADP-Glo), PI3Ka E545K + p85; type: biochemical
Description: as §1

[6] = Human microsomal metabolic stability assay; type: in vitro ADME; details: for PCT_LBF % (percentage of compound removed compared to liver blood flow) / microsomal CLint / half-life / Predicted in vivo clearance: human; for microsomal CLint / half-life: human liver microsome S9, human liver microsome S9; for microsomal CLint: read-out: Human Microsomal Metabolic Stability: Clint; for half-life: read-out: Human Microsomal Metabolic Stability: Half-life; for Predicted in vivo clearance: scaled from microsomal clearance (liver weight, microsomes per liver, liver blood flow)
Description: as §2, §3

[7] = target: SPHK1 (Homo sapiens, UniProt Q9NYA1); assay: Lipid kinase screening (ADP-Glo), SPHK1; type: biochemical
Description: as §1

[8] = test system: PI3Ka E524K + p85; assay: Lipid kinase screening (ADP-Glo), PI3Ka E524K + p85; type: biochemical, human; details: 10 μM
Description: as §1

[9] = test system: R1-D567 cell line; assay: Anti-proliferative SRB assay, R1-D567; type: cell-based; details: Homo sapiens; R1-D567, PSMA −; Table S3, ± SD
Description: as §4

[10] = target: DGK b (Homo sapiens, UniProt Q9Y6T7); assay: Lipid kinase screening (ADP-Glo), DGK b; type: biochemical
Description: as §1

[11] = test system: R1AD1 cell line; assay: Anti-proliferative SRB assay, R1AD1; type: cell-based; details: Homo sapiens; R1AD1, PSMA −; Table S3, ± SD
Description: as §4

[12] = test system: A549 cells; assay: Anti-proliferative SRB assay, A549; type: cell-based; details: Homo sapiens, 72 h, Table S2, ± SD
Description: as §4

[13] = target: PI3K g (Homo sapiens, UniProt P48736); assay: Lipid kinase screening (ADP-Glo), PI3K g; type: biochemical
Description: as §1

[14] = target: DGK z (Homo sapiens, UniProt Q13574); assay: Lipid kinase screening (ADP-Glo), DGK z; type: biochemical
Description: as §1

[15] = target: CHK b (CHKB) (Homo sapiens, UniProt Q9Y259); assay: Lipid kinase screening (ADP-Glo), CHKB; type: biochemical
Description: as §1

[16] = target: PI3K a (Homo sapiens, UniProt P42336); assay: Lipid kinase screening (ADP-Glo), PI3K a; type: biochemical
Description: as §1

[17] = target: PI3K b (Homo sapiens, UniProt P42338); assay: Lipid kinase screening (ADP-Glo), PI3K b; type: biochemical
Description: as §1

[18] = test system: PNT1A cell line; assay: Anti-proliferative SRB assay, PNT1A; type: cell-based; details: Homo sapiens, PSMA −, Table S3, ± SD
Description: as §4

[19] = Kinetic solubility assay; type: physicochemical; details: 0.1 M PBS (2% DMSO), aqueous buffer, kinetic from dmso stock; read-out: Kinetic Solubility: Solubility
Description: as §2, §3

[20] = test system: four cancer cell lines (HCT-116, A549, HepG2, Caco-2); assay: Anti-proliferative SRB assay, mean of four cancer cell lines; type: cell-based; details: Homo sapiens
Description: as §4

[21] = test system: HCT-116 cells; assay: Anti-proliferative SRB assay, HCT-116; type: cell-based; details: Homo sapiens
Description: as §4

[22] = test system: 22Rv1 cell line; assay: Anti-proliferative SRB assay, 22Rv1; type: cell-based; details: Homo sapiens; 22Rv1, PSMA +; Table S3, ± SD
Description: as §4

[23] = Caco-2 permeability and efflux study; type: in vitro ADME, human; details: human; for efflux ratio: Caco-2, read-out: Efflux ratio (Papp B-A/Papp A-B); for Papp A→B: Caco-2, apical to basolateral, read-out: Papp A-B; for Papp B→A: Caco-2, basolateral to apical, read-out: Papp B-A
Description: as §2, §3

[24] = HCT-116, PSMA −, Table S3, ± SD
[25] = HCT-116, SRB, 72 h, Table S2, ± SD

Chain of SPHK1 (Q9NYA1 whole entry): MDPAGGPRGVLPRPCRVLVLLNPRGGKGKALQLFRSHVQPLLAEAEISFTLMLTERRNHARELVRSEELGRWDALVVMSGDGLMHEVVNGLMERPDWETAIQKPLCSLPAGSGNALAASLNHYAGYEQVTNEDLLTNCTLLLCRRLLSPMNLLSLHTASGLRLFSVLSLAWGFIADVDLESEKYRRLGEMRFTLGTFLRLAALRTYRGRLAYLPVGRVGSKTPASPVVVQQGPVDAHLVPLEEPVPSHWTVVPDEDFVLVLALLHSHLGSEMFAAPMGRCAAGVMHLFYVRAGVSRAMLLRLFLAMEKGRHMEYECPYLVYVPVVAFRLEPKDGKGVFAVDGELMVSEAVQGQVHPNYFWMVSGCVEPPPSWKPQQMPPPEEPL
Chain of PI3K b (P42338 whole entry): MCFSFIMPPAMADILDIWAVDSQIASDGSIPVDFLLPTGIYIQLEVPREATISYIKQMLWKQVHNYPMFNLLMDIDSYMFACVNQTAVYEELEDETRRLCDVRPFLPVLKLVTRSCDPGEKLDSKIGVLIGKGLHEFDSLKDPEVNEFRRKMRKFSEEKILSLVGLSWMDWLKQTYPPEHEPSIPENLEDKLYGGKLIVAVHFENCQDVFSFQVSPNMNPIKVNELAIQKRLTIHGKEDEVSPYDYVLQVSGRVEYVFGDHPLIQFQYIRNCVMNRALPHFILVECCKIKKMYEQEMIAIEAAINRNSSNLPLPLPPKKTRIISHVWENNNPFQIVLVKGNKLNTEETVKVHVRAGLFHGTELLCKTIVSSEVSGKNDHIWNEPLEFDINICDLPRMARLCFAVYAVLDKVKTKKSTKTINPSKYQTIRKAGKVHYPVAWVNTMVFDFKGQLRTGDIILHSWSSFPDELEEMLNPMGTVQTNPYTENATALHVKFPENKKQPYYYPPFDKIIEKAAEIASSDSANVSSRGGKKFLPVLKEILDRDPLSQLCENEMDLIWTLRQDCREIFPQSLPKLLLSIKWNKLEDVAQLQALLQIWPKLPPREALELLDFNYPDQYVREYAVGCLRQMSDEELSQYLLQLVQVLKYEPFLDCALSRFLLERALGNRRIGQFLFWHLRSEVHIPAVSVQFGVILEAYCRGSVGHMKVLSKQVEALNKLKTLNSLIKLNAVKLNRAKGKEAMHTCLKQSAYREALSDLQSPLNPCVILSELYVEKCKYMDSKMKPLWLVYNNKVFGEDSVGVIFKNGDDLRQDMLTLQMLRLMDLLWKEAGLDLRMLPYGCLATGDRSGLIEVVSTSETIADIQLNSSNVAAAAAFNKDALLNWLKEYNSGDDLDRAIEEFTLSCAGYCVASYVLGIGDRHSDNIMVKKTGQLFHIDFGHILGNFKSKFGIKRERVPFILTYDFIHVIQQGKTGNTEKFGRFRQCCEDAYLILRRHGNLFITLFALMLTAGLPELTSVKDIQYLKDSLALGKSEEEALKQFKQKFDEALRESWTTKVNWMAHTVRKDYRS
Chain of PI3K b (P27986 whole entry partner): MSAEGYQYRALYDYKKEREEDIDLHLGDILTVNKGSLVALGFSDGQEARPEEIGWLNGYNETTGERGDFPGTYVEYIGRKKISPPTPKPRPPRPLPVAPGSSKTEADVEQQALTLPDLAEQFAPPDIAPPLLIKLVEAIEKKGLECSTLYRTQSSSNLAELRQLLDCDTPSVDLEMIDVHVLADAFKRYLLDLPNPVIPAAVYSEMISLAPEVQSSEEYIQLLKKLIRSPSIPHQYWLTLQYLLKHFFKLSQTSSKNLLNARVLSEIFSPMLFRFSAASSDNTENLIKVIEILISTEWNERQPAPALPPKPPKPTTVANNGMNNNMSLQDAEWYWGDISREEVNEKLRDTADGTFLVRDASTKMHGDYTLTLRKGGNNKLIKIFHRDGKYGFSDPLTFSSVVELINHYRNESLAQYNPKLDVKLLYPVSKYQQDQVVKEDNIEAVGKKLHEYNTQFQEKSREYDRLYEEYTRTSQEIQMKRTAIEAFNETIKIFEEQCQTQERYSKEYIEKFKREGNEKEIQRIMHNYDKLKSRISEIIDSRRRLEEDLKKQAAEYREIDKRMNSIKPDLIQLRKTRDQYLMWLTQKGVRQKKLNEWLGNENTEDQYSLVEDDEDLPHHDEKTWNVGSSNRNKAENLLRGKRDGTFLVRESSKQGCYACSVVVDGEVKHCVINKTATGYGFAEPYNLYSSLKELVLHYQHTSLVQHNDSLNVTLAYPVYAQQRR
Chain of PI3K a (P42336 whole entry): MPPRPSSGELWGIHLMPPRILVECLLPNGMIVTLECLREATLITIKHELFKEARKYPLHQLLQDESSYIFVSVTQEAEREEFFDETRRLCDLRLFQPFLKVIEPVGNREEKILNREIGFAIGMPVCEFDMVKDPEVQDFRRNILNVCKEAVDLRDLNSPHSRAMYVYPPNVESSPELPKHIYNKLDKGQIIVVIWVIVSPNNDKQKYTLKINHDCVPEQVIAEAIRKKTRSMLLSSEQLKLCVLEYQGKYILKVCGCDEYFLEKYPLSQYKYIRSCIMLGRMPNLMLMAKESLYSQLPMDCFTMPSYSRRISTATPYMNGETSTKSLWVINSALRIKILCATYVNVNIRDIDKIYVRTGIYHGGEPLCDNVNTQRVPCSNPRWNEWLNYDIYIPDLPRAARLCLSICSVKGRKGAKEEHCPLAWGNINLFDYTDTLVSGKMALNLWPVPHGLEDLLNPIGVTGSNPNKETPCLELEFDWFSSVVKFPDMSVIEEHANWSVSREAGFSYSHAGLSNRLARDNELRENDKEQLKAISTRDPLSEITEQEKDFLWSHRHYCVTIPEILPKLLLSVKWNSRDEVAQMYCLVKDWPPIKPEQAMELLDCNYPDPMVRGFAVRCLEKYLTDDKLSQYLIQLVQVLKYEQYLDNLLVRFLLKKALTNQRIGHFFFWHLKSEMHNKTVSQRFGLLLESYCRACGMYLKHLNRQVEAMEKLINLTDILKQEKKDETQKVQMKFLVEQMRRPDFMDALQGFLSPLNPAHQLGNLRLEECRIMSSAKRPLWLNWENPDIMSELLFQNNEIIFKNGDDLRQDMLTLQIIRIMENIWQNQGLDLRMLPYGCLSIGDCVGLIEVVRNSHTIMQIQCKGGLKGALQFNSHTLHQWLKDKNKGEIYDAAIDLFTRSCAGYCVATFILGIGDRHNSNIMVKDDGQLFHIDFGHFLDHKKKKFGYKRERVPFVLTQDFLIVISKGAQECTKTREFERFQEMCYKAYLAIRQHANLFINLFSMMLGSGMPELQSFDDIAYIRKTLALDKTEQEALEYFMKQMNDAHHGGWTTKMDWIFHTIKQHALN
Chain of PI3K a (P27986 whole entry partner): as the sequence (P27986 whole entry partner) above
Chain of PI3Ka E545K + p85 (P42336 whole entry E545K): as the sequence (P42336 whole entry) above, with E545K counted along it
Chain of PI3Ka E545K + p85 (P27986 whole entry partner): as the sequence (P27986 whole entry partner) above
Chain of CHK b (CHKB) (Q9Y259 whole entry): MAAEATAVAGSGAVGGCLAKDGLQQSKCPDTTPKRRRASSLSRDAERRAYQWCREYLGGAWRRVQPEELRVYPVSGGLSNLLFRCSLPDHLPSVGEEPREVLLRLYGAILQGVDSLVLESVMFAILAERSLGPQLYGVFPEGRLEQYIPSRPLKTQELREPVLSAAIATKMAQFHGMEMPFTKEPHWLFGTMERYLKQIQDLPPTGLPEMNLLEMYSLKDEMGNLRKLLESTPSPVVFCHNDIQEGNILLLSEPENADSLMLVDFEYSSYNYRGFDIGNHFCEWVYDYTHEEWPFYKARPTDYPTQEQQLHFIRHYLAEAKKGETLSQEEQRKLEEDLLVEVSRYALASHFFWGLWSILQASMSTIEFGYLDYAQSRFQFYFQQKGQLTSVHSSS
Chain of DGK z (Q13574 whole entry): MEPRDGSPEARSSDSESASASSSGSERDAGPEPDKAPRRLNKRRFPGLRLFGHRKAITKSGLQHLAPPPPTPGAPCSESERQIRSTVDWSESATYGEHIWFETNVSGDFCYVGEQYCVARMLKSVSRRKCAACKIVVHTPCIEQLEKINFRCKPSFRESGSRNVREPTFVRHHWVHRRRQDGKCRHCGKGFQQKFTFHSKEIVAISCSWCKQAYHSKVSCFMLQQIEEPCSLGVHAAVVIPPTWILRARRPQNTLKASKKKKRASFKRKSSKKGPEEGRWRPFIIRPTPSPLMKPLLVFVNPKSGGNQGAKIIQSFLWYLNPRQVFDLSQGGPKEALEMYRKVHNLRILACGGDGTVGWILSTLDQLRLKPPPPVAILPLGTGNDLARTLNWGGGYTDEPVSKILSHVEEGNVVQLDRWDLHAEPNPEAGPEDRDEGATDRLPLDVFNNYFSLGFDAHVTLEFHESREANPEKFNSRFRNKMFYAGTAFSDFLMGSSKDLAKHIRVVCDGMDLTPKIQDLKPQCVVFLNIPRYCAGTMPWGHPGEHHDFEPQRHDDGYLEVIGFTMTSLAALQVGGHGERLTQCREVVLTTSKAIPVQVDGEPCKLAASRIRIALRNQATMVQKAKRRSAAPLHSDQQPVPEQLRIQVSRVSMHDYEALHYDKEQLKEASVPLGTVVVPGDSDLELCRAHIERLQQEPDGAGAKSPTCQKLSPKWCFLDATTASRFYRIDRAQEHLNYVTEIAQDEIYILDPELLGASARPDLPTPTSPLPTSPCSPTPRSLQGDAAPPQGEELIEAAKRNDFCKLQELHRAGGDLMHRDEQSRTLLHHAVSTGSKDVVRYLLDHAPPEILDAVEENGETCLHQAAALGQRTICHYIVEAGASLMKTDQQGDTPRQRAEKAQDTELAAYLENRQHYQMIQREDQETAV

CN(C)c1cc[n+](CCCCCCCCCCCC[n+]2ccc(N(C)C)cc2)cc1 [ICL-CCIC-0019]
inhibition at 10 µM [1]: 53% | % Inhibition CHK a [1]: 53.4% | Matrix Stability: Remaining % [2]: 117% | half-life [2]: > 600 min | GI50 [3]: 1.2 ± 0.31 µM | inhibition at 10 µM [4]: 7.8% | inhibition at 10 µM [5]: -6.1% | PCT_LBF % (percentage of compound removed compared to liver blood flow) [6]: <45% | Human Microsomal Metabolic Stability: Remaining % ([6]; human liver microsome S9): 92% | microsomal CLint [6]: < 14 µL/min/mg | half-life [6]: > 100 min | Predicted in vivo clearance [6]: <10 mL/min/kg | inhibition at 10 µM [7]: -3.7% | % Inhibition PI3Ka E524K + p85 [8]: 1.6% | GI50 [9]: 320 nM | inhibition at 10 µM [10]: 8.6% | GI50 [11]: 0.4 ± 0.01 µM | GI50 [12]: 50 ± 5 nM | inhibition at 10 µM [13]: 4.9% | inhibition at 10 µM [14]: 7.5% | inhibition at 10 µM [15]: -28.6% | inhibition at 10 µM [16]: 1% | inhibition at 10 µM [17]: -39.6% | GI50 [18]: 470 ± 80 nM | solubility kinetic [19]: 161 µM | GI50 [20]: 500 ± 20 nM | GI50 [21, 24]: 0.42 ± 0.03 µM | GI50 [21, 25]: 0.42 ± 0.03 µM | GI50 [22]: 0.91 ± 0.13 µM | efflux ratio [23]: > 8.6 | Papp A→B [23]: < 0.1 ×10⁻⁶ cm/s | Papp B→A [23]: 0.9 ×10⁻⁶ cm/s

CC(=O)NCCCCC(NC(=O)OC(C)(C)C)C(=O)N1CCN(c2cc[n+](CCCCCCCCCCCCCC[n+]3ccc(N(C)C)cc3)cc2)CC1 (centres unmarked) [CK145]
inhibition at 10 µM [1]: 63% | % Inhibition CHK a [1]: 62.9% | Matrix Stability: Remaining % [2]: 74% | half-life [2]: 552 min | FaSSGF stability (in words) ([2]; low pH (1.6)): Rapid decomposition | GI50 [3]: 63 ± 12.1 µM | inhibition at 10 µM [4]: 13.2% | inhibition at 10 µM [5]: -1.8% | Human Microsomal Metabolic Stability: Remaining % ([6]; human liver microsome S9): 2% | metabolic stability (in words) ([6]; human liver microsome S9): Rapid decomposition | Predicted in vivo clearance [6]: 19 mL/min/kg | inhibition at 10 µM [7]: 0.6% | % Inhibition PI3Ka E524K + p85 [8]: −0.1% | GI50 [9]: 40400 ± 4560 nM | inhibition at 10 µM [10]: 8% | GI50 [11]: 53.4 ± 2.27 µM | GI50 [12]: 2470 ± 60 nM | inhibition at 10 µM [13]: 2.9% | inhibition at 10 µM [14]: 11.6% | inhibition at 10 µM [15]: -18.1% | inhibition at 10 µM [16]: -1% | inhibition at 10 µM [17]: -15.8% | GI50 [18]: 63600 ± 10400 nM | solubility kinetic [19]: 178 µM | GI50 [20]: 5000 ± 300 nM | GI50 [21, 24]: 103 ± 6.27 µM | GI50 [21, 25]: 6.63 ± 0.2 µM | GI50 [22]: 45.6 ± 6.4 µM | efflux ratio [23]: > 2.8 | Papp A→B [23]: < 0.1 ×10⁻⁶ cm/s | Papp B→A [23]: 0.3 ×10⁻⁶ cm/s

CN(C)c1cc[n+](CCCCCCCCCCCCCC[n+]2ccc(N3CCNCC3)cc2)cc1 [CK146]
inhibition at 10 µM [1]: 69% | % Inhibition CHK a [1]: 69.1% | Matrix Stability: Remaining % [2]: 92% | half-life [2]: > 600 min | GI50 [3]: 4.22 ± 0.43 µM | inhibition at 10 µM [4]: 10.7% | inhibition at 10 µM [5]: -1% | PCT_LBF % (percentage of compound removed compared to liver blood flow) [6]: <45% | Human Microsomal Metabolic Stability: Remaining % ([6]; human liver microsome S9): 127% | microsomal CLint [6]: < 14 µL/min/mg | half-life [6]: > 100 min | Predicted in vivo clearance [6]: <10 mL/min/kg | inhibition at 10 µM [7]: 2.1% | % Inhibition PI3Ka E524K + p85 [8]: −6.5% | GI50 [9]: 870 ± 30 nM | inhibition at 10 µM [10]: 1.1% | GI50 [11]: 5.67 ± 2.33 µM | GI50 [12]: 2070 ± 200 nM | inhibition at 10 µM [13]: 6.7% | inhibition at 10 µM [14]: 8.6% | inhibition at 10 µM [15]: -49% | inhibition at 10 µM [16]: -5.4% | inhibition at 10 µM [17]: -45.9% | GI50 [18]: 3000 ± 260 nM | solubility kinetic [19]: 158 µM | GI50 [20]: 2500 ± 300 nM | GI50 [21, 24]: 4.76 ± 0.8 µM | GI50 [21, 25]: 4.76 ± 0.8 µM | GI50 [22]: 4.98 ± 1.5 µM | efflux ratio [23]: > 2.6 | Papp A→B [23]: < 0.1 ×10⁻⁶ cm/s | Papp B→A [23]: 0.3 ×10⁻⁶ cm/s
